Reference: patent US20090227563A1, “HERBICIDAL COMPOSITIONS HAVING IMPROVED EFFECT” (Bayer CropScience AG, priority 2005, published 2009)

Tests used:
Assay in all cases: Glasshouse trial on activity boost, post-emergence spraying, visual rating
Type in all cases: in vivo
Setaria viridis (SETVI) = system: Setaria viridis (SETVI)
Experimental: (§1) Seeds of monocot and dicot weeds and crop plants are sown in sandy loam soil in wood fibre pots or in plastic pots, and are covered with soil and cultivated under good growth conditions in the glasshouse and also, during the vegetation period, outdoors outside the glasshouse. 2-3 weeks after sowing, the trial plants are treated at the one- to three-leaf stage. The test compounds, formulated as wettable powders (WP) or liquids (EC), are applied by spraying to the plants and the soil surface in various doses, with a water application rate of 300 l/ha (converted) and with the addition of penetrants (0.2% to 0.4%) and where appropriate an ammonium salt. After the trial plants had stood in the glasshouse for about 3 to 4 weeks under optimum growth conditions, the activity of the products was rated visually in comparison to untreated controls (activity in %, i.e. 0%=no activity or as control, 100%=all plants died).
(§2) For rapeseed oil methyl ester (RME) the following tables specify concentration in % a.i. by volume for ammonium sulphate (AMS) in g/l in the spray liquor.
(§3) ALOMY=Alopecurus myosuroides AVEFA=Avena fatua LOLMU=Lolium multiflorum SETVI=Setaria viridis

[1] = system: Lolium multiflorum (LOLMU)
Experimental: as §1, §2
(§4) ALOMY=Alopecurus myosuroides AVEFA=Avena fatua LOLMU=Lolium multiflorum LOLRI=Lolium rigidum
as §3

Avena fatua (AVEFA) = system: Avena fatua (AVEFA)
Experimental: as §1, §2, §4, §3
(§5) ALOMY=Alopecurus myosuroides AVEFA=Avena fatua LOLMU=Lolium multiflorum SETVI=Setaria viridis BROER=Bromus erectus

[2] = system: Alopecurus myosuroides (ALOMY)
Experimental: as §1, §2, §4, §3, §5

[3] = 25 g/ha, RME (0.25%) + AMS (3.3 g/l)
[4] = 50 g/ha, RME (0.25%) + AMS (3.3 g/l)
[5] = 12.5 g/ha, RME (0.25%) + AMS (3.3 g/l)
[6] = 50 g/ha, RME (0.25%) + AMS (0.33 g/l)
[7] = 50 g/ha, RME (0.25%) + AMS (1 g/l)

Compound: CCc1cc(Br)cc(C)c1C1=C(O)C2(CCC(OC)CC2)NC1=O (centres unmarked) [I-1-a-1]
- Activity (Setaria viridis (SETVI); 25 g/ha, RME (0.25%)): 30%
- Activity (Setaria viridis (SETVI); [3]): 50%
- Activity (Setaria viridis (SETVI); 50 g/ha, RME (0.25%)): 40%
- Activity (Setaria viridis (SETVI); [4]): 50%

Compound: CCc1cc(Br)cc(Cl)c1C1=C(O)C(C)(C2CC2)NC1=O (centres unmarked) [I-1-a-2]
- Activity (Setaria viridis (SETVI); 12.5 g/ha, RME (0.25%)): 5%
- Activity (Setaria viridis (SETVI); [5]): 60%
- Activity (Setaria viridis (SETVI); 25 g/ha, RME (0.25%)): 20%
- Activity (Setaria viridis (SETVI); [3]): 90%
- Activity (Setaria viridis (SETVI); 50 g/ha, RME (0.25%)): 50%
- Activity (Setaria viridis (SETVI); [4]): 93%

Compound: CCc1cc(C)cc(OC)c1C1=C(O)C2CCCN2C1=O (centres unmarked) [I-1-a-3]
- Activity (Setaria viridis (SETVI); 25 g/ha, RME (0.25%)): 15%
- Activity (Setaria viridis (SETVI); [3]): 70%
- Activity (Setaria viridis (SETVI); 50 g/ha, RME (0.25%)): 93%
- Activity (Setaria viridis (SETVI); [4]): 95%
- Activity (Setaria viridis (SETVI); 100 g/ha, RME (0.25%)): 93%
- Activity (Setaria viridis (SETVI); 100 g/ha, RME (0.25%) + AMS (3.3 g/l)): 99%

Compound: CCc1cccc(CC)c1C1=C(O)[C@]2(CC[C@H](OC)CC2)NC1=O [I-1-a-4]
- Activity ([1]; 25 g/ha, RME (0.25%)): 2%
- Activity [1, 3]: 75%
- Activity ([1]; 50 g/ha, RME (0.25%)): 5%
- Activity [1, 4]: 90%
- Activity (Avena fatua (AVEFA); 25 g/ha, RME (0.25%)): 3%
- Activity (Avena fatua (AVEFA); [3]): 10%
- Activity (Avena fatua (AVEFA); 50 g/ha, RME (0.25%)): 5%
- Activity (Avena fatua (AVEFA); [4]): 30%
- Activity ([2]; 25 g/ha, RME (0.25%)): 3%
- Activity [2, 3]: 50%
- Activity ([2]; 50 g/ha, RME (0.25%)): 5%
- Activity [2, 4]: 70%

Compound: CCCCO[C@@H]1CCC[C@]2(C1)NC(=O)C(c1c(C)cc(C)cc1C)=C2O [I-1-a-5]
- Activity ([1]; 50 g/ha, RME (0.25%)): 5%
- Activity [1, 6]: 60%
- Activity [1, 7]: 93%
- Activity [1, 4]: 95%
- Activity ([2]; 25 g/ha, RME (0.25%)): 25%
- Activity ([2]; 25 g/ha, RME (0.25%) + AMS (0.33 g/l)): 50%
- Activity ([2]; 25 g/ha, RME (0.25%) + AMS (1 g/l)): 50%
- Activity [2, 3]: 60%

Compound: CCc1cc(C)cc(Br)c1C1=C(O)C(C)(C)NC1=O [I-1-a-6]
- Activity ([1]; 50 g/ha, RME (0.25%)): 5%
- Activity [1, 6]: 20%
- Activity [1, 7]: 50%
- Activity [1, 4]: 65%
- Activity (Setaria viridis (SETVI); 12.5 g/ha, RME (0.25%)): 50%
- Activity (Setaria viridis (SETVI); 12.5 g/ha, RME (0.25%) + AMS (0.33 g/l)): 65%
- Activity (Setaria viridis (SETVI); 12.5 g/ha, RME (0.25%) + AMS (1 g/l)): 75%
- Activity (Setaria viridis (SETVI); [5]): 90%

Compound: CCc1cc(Cl)ccc1C1=C(OC(=O)C(C)C)C2(CCC(C)CC2)NC1=O (centres unmarked) [I-1-b-1]
- Activity ([1]; 25 g/ha, RME (0.25%)): 10%
- Activity [1, 3]: 25%
- Activity ([1]; 50 g/ha, RME (0.25%)): 10%
- Activity [1, 4]: 75%
- Activity (Avena fatua (AVEFA); 25 g/ha, RME (0.25%)): 15%
- Activity (Avena fatua (AVEFA); [3]): 60%
- Activity (Avena fatua (AVEFA); 50 g/ha, RME (0.25%)): 50%
- Activity (Avena fatua (AVEFA); [4]): 60%
- Activity ([2]; 25 g/ha, RME (0.25%)): 5%
- Activity [2, 3]: 25%
- Activity ([2]; 50 g/ha, RME (0.25%)): 20%
- Activity [2, 4]: 75%
